Experimental data taken from patent US11530244B2, “Cyclic polypeptides for PCSK9 inhibition” (priority 2018, dated 2022).
Where two headings read alike, the source gives them in different places. Starred links: 1 amine or outer side, 2 acyl side, 3 side chain; linkers in the order of their positions; H or OH if unused. Positions of bridges follow the written chain, without caps; N, C: chain ends. Non-standard residues stand in square brackets, D forms with d. Residues, ends and D or L forms follow the SMILES beside them. Phe(4-COOH) = N[C@@H](Cc1ccc(C(=O)O)cc1)C(=O)O; Trp(5-F) = N[C@@H](Cc1c[nH]c2ccc(F)cc12)C(=O)O; Tyr(3-Cl) = N[C@@H](Cc1ccc(O)c(Cl)c1)C(=O)O; Bip = N[C@@H](Cc1ccc(-c2ccccc2)cc1)C(=O)O; NMeW = CN[C@@H](Cc1c[nH]c2ccccc12)C(=O)O; Dip = N[C@H](C(=O)O)C(c1ccccc1)c1ccccc1; X36 = O=C([C@H](CC1=NC=NC1)N[*:1])[*:2]; X4 = O=C(CCSCc1cccc(CSCCN[*:1])c1)[*:2]; mXylylene = c1cc(C[*:1])cc(C[*:2])c1; AEF = NCCOc1ccc(C[C@H](N)C(=O)O)cc1; NMeY = CN[C@@H](Cc1ccc(O)cc1)C(=O)O; hPhe = N[C@@H](CCc1ccccc1)C(=O)O; αMeP = C[C@@]1(C(=O)O)CCCN1; Orn = NCCC[C@H](N)C(=O)O; Mpa = O=C(O)CCS

Tests used:
[1] = target: human PCSK9 / human LDLR EGFa domain interaction (Homo sapiens (Human), UniProt Q8NBP7); assay: TR-FRET assay of inhibition of the PCSK9-LDLR protein-protein interaction; assay type: binding
Sequence of human PCSK9 / human LDLR EGFa domain interaction (Q8NBP7 153-692): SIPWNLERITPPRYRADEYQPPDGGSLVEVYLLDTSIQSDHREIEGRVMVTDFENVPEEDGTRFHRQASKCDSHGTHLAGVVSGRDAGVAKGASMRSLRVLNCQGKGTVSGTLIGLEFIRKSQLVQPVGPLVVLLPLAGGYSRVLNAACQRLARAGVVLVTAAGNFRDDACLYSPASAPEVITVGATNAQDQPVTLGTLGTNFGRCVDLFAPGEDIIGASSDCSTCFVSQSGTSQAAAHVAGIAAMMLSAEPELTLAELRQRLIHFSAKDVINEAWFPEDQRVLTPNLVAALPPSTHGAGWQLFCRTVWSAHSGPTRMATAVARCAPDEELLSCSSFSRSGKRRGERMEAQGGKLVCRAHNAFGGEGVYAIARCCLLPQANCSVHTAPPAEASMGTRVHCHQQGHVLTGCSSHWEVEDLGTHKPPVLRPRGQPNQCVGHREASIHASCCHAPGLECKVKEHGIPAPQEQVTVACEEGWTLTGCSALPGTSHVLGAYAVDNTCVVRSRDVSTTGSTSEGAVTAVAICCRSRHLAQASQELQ
Sequence of human PCSK9 / human LDLR EGFa domain interaction (Q8NBP7 31-152 partner): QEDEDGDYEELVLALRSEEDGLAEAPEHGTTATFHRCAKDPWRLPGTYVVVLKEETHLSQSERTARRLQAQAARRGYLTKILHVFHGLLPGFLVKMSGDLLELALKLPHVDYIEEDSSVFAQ
Outline: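 Half-maximal inhibitory concentrations came from 4-parameter fits of dose-response data. Proteins: biotinylated PCSK9, His-tagged LDLR EGFa, 20 nM each; labels 5 nM; 2 h, room temperature; buffer 50 mM HEPES, 150 mM NaCl, 5 mM CaCl2.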

[2] = target: PCSK9 (Homo sapiens (Human), UniProt Q8NBP7); assay: PCSK9 Alexa FRET Standard assay (displacement of AlexaFluor647 tagged cyclic peptide Reagent A); assay type: binding
Sequence of PCSK9 (Q8NBP7 153-692): as the sequence (Q8NBP7 153-692) above
Outline: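 TR-FRET displacement: 0.5 nM biotinylated PCSK9 with 1.25 nM Strep-Eu and 20 nM AlexaFluor-tagged cyclic peptide (final) in 50 mM HEPES pH 7.4, 0.15 M NaCl, 5 mM CaCl2, 0.01% BSA, 0.01% P20, ≥2 h at room temperature. IC50 from sigmoidal fit, converted to Ki via peptide KD; falling Eu counts flagged false positives.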

[3] = TR-FRET, 20 nM human PCSK9, 20 nM human LDLR EGFa domain, 2 hours room temperature, read-out: IC50
[4] = PCSK9 Alexa FRET Standard assay, 0.5 nM PCSK9, 20 nM AF cyclic peptide Reagent A, read-out: IC50

Row | SMILES | IC50 [1, 3] [nM] | IC50 [2, 4] [nM] | IC50 [1] [nM] | IC50 ([2]; IC50) [nM]
1 | NCCCC[C@@H]1NC(=O)CCSCc2cccc(c2)CSC[C@@H](C(N)=O)NC(=O)[C@@H]2CCCN2C(=O)[C@H](Cc2ccc(O)cc2)NC(=O)[C@H](Cc2c[nH]cn2)NC(=O)[C@H](CC(=O)O)NC(=O)[C@H](Cc2c[nH]c3ccc(F)cc23)NC(=O)[C@H](Cc2ccc(-c3ccccc3)cc2)NC(=O)CNC1=O [Compound 210] ([Mpa]KG[Bip][Trp(5-F)]DHYPC-NH2; linker 1-10 via mXylylene) | 1000 to 12100 | 1000 to 12100 |  | 
2 | C[C@H]1NC(=O)[C@H](CCCCN)NC(=O)CCSCc2cccc(c2)CSCCNC(=O)[C@]2(C)CCCN2C(=O)[C@H](Cc2ccc(O)c(Cl)c2)NC(=O)[C@H](Cc2cnc[nH]2)NC(=O)[C@H](CC(=O)O)NC(=O)[C@H](Cc2c[nH]c3ccc(F)cc23)NC(=O)[C@H](Cc2c[nH]c3ccc(F)cc23)NC1=O [Compound 246] (cyclo(DH[Tyr(3-Cl)][αMeP][X4]K[dA][Trp(5-F)][Trp(5-F)])) | 100 to 1000 | 1000 to 12100 |  | 
3 | NCCCC[C@@H]1NC(=O)CCSCc2cccc(c2)CSC[C@@H](C(N)=O)NC(=O)[C@@H]2CCCN2C(=O)[C@H](Cc2ccc(OCCN)cc2)NC(=O)[C@H](Cc2c[nH]cn2)NC(=O)[C@H](CC(=O)O)NC(=O)[C@H](Cc2c[nH]c3ccc(F)cc23)NC(=O)[C@H](Cc2c[nH]c3ccc(F)cc23)NC(=O)CNC1=O [Compound 265] ([Mpa]KG[Trp(5-F)][Trp(5-F)]DH[AEF]PC-NH2; linker 1-10 via mXylylene) | 100 to 1000 | 100 to 1000 |  | 
4 | C[C@H]1NC(=O)[C@H](CCCCN)NC(=O)CCSCc2cccc(c2)CSCCNC(=O)[C@]2(C)CCCN2C(=O)[C@H](Cc2ccc(O)cc2)N(C)C(=O)[C@H](Cc2c[nH]cn2)NC(=O)[C@H](CC(=O)O)NC(=O)[C@H](Cc2c[nH]c3ccc(F)cc23)NC(=O)[C@H](Cc2c[nH]c3ccccc23)N(C)C1=O [Compound 276] (cyclo(DH[NMeY][αMeP][X4]K[dA][NMeW][Trp(5-F)])) |  |  | 0.1 to 100 | 100 to 1000

The next lines start with results.

Row | IC50 [1, 3] [nM] | IC50 [2, 4] [nM] | SMILES | IC50 [1] [nM] | IC50 ([2]; IC50) [nM]
5 | 100 to 1000 | 100 to 1000 | C[C@@H](O)[C@@H]1NC(=O)[C@H](Cc2c[nH]c3ccc(F)cc23)NC(=O)[C@H](Cc2c[nH]c3ccc(F)cc23)NC(=O)CNC(=O)[C@H](CCCCN)NC(=O)CCSCc2cccc(c2)CSC[C@@H](C(N)=O)NC(=O)[C@@H]2CCCN2C(=O)[C@H](Cc2ccc(O)cc2)NC(=O)[C@H](Cc2c[nH]cn2)NC1=O [Compound 224] ([Mpa]KG[Trp(5-F)][Trp(5-F)]THYPC-NH2; linker 1-10 via mXylylene) |  | 
6 | 100 to 1000 | 100 to 1000 | NCCCC[C@@H]1NC(=O)CCSCc2cccc(c2)CSC[C@@H](C(N)=O)NC(=O)[C@@H]2CCCN2C(=O)[C@H](Cc2ccc(O)cc2)NC(=O)[C@H](Cc2c[nH]cn2)NC(=O)[C@H](CC(=O)O)NC(=O)[C@H](CCc2ccccc2)NC(=O)[C@H](Cc2c[nH]c3ccc(F)cc23)NC(=O)CNC1=O [Compound 244] ([Mpa]KG[Trp(5-F)][hPhe]DHYPC-NH2; linker 1-10 via mXylylene) |  | 
7 | 0.1 to 100 | 100 to 1000 | C[C@@]12CCCN1C(=O)[C@H](Cc1ccc(O)cc1)NC(=O)[C@H](Cc1cnc[nH]1)NC(=O)[C@H](CC(=O)O)NC(=O)[C@H](Cc1c[nH]c3ccc(F)cc13)NC(=O)[C@H](Cc1c[nH]c3ccc(F)cc13)NC(=O)CNC(=O)[C@H](CCCN)NC(=O)CCSCc1cccc(c1)CSC[C@@H](C(N)=O)NC2=O [Compound 248] ([Mpa][Orn]G[Trp(5-F)][Trp(5-F)]DHY[αMeP]C-NH2; linker 1-10 via mXylylene) |  | 
8 | 100 to 1000 | 100 to 1000 | CC(=O)N[C@@H]1CCCCNC(=O)c2ccc(cc2)C[C@@H](C(N)=O)NC(=O)[C@]2(C)CCCN2C(=O)[C@H](Cc2ccc(O)cc2)NC(=O)[C@H](Cc2cnc[nH]2)NC(=O)[C@H](CC(=O)O)NC(=O)[C@H](Cc2c[nH]c3ccc(F)cc23)NC(=O)[C@H](Cc2c[nH]c3ccc(F)cc23)NC(=O)CNC1=O [Compound 255] (Ac-[dK]G[Trp(5-F)][Trp(5-F)]DHY[αMeP][Phe(4-COOH)]-NH2; lactam 1-9) |  | 
9 | 0.1 to 100 | 0.11 to 100 | COc1ccc(C[C@@H]2NC(=O)[C@H](CC3=NC=NC3)NC(=O)[C@H](CC(=O)O)NC(=O)[C@H](Cc3c[nH]c4ccc(F)cc34)NC(=O)[C@H](C(c3ccccc3)c3ccccc3)NC(=O)[C@@H](C)NC(=O)[C@H](CCCCN)NC(=O)CCSCc3cccc(c3)CSCCNC(=O)[C@]3(C)CCCN3C2=O)cc1 [Compound 275] (cyclo(D[X36]Y(Me)[αMeP][X4]K[dA][Dip][Trp(5-F)])) |  | 
